Columns and labels:
Test in all cases: KINOMEscan competition binding
Conditions in all cases: compound 10.0 µM
CDC42BPA (human) = CDC42BPA (human) (UniProt Q5VT25)
INSRR (human) = INSRR (human) (UniProt P14616)
SYK (human) = SYK (human) (UniProt P43405)
STK16 (human) = STK16 (human) (UniProt O75716)
NEK9 (human) = NEK9 (human) (UniProt Q8TD19)
MARK2 (human) = MARK2 (human) (UniProt Q7KZI7)
RPS6KA1 KD1 (human) = RPS6KA1 KD1 (human) (UniProt Q15418)
STK38L (human) = STK38L (human) (UniProt Q9Y2H1)
IKBKE (human) = IKBKE (human) (UniProt Q14164)
MARK4 (human) = MARK4 (human) (UniProt Q96L34)
PRKAA1 (human) = PRKAA1 (human) (UniProt Q13131)
LATS2 (human) = LATS2 (human) (UniProt Q9NRM7)
MAP4K2 (human) = MAP4K2 (human) (UniProt Q12851)
AXL (human) = AXL (human) (UniProt P30530)
NEK6 (human) = NEK6 (human) (UniProt Q9HC98)
TGFBR2 (human) = TGFBR2 (human) (UniProt P37173)
PRKACB (human) = PRKACB (human) (UniProt P22694)
STK25 (human) = STK25 (human) (UniProt O00506)
MAPK3 (human) = MAPK3 (human) (UniProt P27361)
ZAP70 (human) = ZAP70 (human) (UniProt P43403)
ALK (human) = ALK (human) (UniProt Q9UM73)
SIK2 (human) = SIK2 (human) (UniProt Q9H0K1)
SRPK2 (human) = SRPK2 (human) (UniProt P78362)
SLK (human) = SLK (human) (UniProt Q9H2G2)
CDK16 (human) = CDK16 (human) (UniProt Q00536)
MARK1 (human) = MARK1 (human) (UniProt Q9P0L2)
[1] = target: JAK1 JH2 pseudokinase (human) (UniProt P23458)
CDK9 (human) = CDK9 (human) (UniProt P50750)
[2] = target: JAK3 JH1 catalytic (human) (UniProt P52333)
GSK3A (human) = GSK3A (human) (UniProt P49840)
CAMKK1 (human) = CAMKK1 (human) (UniProt Q8N5S9)
ROS1 (human) = ROS1 (human) (UniProt P08922)
MYO3A (human) = MYO3A (human) (UniProt Q8NEV4)
MST1R (human) = MST1R (human) (UniProt Q04912)
CAMK2D (human) = CAMK2D (human) (UniProt Q13557)
EPHA3 (human) = EPHA3 (human) (UniProt P29320)
CLK3 (human) = CLK3 (human) (UniProt P49761)
CLK1 (human) = CLK1 (human) (UniProt P49759)
PRKX (human) = PRKX (human) (UniProt P51817)
CSNK1A1L (human) = CSNK1A1L (human) (UniProt Q8N752)

Sequence of GSK3A (human) (P49840 whole entry, looked up): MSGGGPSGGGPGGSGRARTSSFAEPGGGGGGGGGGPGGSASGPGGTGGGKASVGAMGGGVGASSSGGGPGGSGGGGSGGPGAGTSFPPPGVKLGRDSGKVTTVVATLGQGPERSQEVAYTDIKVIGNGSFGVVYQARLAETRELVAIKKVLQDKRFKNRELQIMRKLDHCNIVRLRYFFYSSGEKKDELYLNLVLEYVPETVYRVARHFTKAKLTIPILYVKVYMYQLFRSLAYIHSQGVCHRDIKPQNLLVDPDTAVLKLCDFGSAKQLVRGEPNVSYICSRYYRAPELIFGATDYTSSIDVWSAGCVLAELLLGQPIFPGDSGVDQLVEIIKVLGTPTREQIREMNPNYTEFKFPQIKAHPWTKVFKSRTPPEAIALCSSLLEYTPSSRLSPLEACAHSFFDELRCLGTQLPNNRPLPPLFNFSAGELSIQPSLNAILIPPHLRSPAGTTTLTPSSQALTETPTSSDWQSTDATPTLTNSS
Sequence of STK38L (human) (Q9Y2H1 whole entry, looked up): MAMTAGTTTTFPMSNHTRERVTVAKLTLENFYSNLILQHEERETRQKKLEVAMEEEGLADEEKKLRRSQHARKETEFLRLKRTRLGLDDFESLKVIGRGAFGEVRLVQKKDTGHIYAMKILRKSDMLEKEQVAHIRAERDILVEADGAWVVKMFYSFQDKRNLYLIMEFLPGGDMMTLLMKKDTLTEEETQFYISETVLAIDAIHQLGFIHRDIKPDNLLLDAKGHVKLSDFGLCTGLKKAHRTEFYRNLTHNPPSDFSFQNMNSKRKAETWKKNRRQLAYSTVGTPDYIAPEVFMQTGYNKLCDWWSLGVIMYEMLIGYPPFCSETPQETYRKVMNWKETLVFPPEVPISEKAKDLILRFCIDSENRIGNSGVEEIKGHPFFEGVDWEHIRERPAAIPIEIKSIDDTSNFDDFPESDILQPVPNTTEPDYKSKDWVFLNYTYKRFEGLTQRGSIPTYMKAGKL
Sequence of INSRR (human) (P14616 whole entry, looked up): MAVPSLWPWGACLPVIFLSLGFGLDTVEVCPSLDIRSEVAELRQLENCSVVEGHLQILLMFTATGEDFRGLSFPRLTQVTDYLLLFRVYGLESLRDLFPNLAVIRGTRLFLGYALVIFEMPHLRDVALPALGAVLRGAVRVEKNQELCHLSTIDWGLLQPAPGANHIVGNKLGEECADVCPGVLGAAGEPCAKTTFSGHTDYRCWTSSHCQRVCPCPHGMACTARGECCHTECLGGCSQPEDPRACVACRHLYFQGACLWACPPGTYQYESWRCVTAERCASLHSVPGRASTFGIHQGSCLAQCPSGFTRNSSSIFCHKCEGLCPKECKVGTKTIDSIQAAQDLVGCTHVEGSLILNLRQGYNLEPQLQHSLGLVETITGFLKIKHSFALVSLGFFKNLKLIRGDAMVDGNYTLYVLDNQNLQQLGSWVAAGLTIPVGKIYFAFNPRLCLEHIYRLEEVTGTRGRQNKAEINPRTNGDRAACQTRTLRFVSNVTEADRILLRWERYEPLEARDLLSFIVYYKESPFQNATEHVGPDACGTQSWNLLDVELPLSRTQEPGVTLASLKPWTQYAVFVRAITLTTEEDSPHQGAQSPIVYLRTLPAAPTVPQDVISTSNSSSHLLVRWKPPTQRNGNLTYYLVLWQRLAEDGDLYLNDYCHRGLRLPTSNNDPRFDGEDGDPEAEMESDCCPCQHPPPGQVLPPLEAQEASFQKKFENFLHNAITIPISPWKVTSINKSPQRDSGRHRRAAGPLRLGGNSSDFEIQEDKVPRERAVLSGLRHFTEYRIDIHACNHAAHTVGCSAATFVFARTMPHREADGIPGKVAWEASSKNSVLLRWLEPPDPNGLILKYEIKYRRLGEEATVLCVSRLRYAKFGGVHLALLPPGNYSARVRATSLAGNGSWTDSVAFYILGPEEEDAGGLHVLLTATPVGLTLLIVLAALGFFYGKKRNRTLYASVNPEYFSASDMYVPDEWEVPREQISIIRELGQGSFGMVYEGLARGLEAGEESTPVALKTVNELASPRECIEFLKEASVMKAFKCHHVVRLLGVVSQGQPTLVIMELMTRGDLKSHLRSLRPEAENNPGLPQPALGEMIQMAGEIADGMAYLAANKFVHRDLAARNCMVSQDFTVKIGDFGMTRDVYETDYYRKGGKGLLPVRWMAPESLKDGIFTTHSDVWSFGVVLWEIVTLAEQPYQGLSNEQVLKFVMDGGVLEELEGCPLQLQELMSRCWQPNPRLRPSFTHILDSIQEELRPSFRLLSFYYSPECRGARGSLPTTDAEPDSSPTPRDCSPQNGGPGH
Sequence of PRKAA1 (human) (Q13131 whole entry, looked up): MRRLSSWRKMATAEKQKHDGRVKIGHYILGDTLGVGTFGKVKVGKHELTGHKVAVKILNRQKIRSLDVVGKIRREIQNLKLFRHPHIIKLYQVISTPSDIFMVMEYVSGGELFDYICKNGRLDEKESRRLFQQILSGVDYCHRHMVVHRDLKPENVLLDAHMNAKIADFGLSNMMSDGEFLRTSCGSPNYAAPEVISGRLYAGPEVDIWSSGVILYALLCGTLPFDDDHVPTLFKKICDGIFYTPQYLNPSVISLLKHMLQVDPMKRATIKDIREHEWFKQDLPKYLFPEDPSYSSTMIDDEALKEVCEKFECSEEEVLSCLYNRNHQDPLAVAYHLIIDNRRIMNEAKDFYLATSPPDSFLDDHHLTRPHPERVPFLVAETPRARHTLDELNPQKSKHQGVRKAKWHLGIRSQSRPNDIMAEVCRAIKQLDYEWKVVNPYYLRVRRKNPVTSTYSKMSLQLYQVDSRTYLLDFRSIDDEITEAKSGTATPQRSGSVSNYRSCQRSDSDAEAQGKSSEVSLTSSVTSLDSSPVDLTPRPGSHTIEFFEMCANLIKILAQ
Sequence of MAP4K2 (human) (Q12851 whole entry, looked up): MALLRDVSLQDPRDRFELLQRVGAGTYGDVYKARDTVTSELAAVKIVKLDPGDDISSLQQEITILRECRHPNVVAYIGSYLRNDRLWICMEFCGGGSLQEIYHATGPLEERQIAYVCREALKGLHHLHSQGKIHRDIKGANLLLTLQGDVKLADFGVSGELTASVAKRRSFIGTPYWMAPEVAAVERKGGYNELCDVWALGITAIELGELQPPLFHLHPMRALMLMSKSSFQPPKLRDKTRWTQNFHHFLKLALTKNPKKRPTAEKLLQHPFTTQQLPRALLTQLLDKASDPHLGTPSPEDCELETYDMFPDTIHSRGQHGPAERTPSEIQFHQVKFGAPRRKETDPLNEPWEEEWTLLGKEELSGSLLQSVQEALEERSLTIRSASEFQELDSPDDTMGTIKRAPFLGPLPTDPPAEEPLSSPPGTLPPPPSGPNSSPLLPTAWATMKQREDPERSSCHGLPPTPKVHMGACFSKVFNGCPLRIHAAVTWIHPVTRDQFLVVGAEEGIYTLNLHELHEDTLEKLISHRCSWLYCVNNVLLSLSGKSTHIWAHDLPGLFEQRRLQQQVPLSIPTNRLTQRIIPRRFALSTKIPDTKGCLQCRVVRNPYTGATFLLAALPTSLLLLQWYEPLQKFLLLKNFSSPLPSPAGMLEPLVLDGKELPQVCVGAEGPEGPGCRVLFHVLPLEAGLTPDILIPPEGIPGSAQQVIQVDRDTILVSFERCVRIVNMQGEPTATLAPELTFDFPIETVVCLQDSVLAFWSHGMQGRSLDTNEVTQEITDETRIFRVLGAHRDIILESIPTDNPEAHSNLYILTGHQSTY
Sequence of JAK3 JH1 catalytic (human) (P52333 whole entry, looked up): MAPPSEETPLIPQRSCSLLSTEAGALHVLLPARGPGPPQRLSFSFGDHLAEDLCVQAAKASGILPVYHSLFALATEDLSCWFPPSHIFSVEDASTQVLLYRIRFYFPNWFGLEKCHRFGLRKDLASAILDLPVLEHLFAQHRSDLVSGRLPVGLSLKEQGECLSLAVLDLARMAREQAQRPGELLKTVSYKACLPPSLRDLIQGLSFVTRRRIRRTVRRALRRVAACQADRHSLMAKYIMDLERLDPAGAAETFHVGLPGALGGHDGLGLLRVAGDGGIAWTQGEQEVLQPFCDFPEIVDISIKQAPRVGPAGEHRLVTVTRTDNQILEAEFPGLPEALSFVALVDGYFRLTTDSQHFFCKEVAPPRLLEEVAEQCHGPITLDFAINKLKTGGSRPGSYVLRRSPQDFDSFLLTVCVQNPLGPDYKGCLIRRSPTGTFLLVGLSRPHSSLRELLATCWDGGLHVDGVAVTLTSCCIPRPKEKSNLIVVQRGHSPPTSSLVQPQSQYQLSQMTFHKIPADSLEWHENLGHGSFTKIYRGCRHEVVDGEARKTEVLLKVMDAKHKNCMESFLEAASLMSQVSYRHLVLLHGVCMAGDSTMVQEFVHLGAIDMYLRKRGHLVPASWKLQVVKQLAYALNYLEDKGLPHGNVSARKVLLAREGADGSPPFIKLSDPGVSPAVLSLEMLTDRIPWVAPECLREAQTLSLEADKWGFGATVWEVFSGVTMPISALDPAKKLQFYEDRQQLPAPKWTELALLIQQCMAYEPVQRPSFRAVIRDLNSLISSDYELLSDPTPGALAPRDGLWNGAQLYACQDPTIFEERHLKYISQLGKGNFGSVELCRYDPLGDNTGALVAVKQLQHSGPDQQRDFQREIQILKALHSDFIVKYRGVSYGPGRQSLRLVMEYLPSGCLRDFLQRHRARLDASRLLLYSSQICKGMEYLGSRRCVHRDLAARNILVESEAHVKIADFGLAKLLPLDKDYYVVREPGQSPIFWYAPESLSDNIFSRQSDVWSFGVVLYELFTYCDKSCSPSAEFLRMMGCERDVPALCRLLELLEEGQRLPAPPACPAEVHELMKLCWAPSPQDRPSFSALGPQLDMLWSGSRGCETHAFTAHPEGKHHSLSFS
Sequence of STK16 (human) (O75716 whole entry, looked up): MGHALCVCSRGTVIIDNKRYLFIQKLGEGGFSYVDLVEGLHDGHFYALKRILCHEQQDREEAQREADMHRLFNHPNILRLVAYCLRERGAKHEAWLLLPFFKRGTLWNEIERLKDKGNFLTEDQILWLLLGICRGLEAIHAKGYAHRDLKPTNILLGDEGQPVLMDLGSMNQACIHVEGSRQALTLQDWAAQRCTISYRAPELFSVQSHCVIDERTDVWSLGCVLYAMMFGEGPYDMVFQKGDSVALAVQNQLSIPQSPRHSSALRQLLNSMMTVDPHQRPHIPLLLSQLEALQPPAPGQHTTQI

Compound | kinase still bound, per cent of control (CDC42BPA (human)) [%] | kinase still bound, per cent of control (INSRR (human)) [%] | kinase still bound, per cent of control (SYK (human)) [%] | kinase still bound, per cent of control (STK16 (human)) [%] | kinase still bound, per cent of control (NEK9 (human)) [%] | kinase still bound, per cent of control (MARK2 (human)) [%] | kinase still bound, per cent of control (RPS6KA1 KD1 (human)) [%] | kinase still bound, per cent of control (STK38L (human)) [%] | kinase still bound, per cent of control (IKBKE (human)) [%] | kinase still bound, per cent of control (MARK4 (human)) [%] | kinase still bound, per cent of control (PRKAA1 (human)) [%] | kinase still bound, per cent of control (LATS2 (human)) [%] | kinase still bound, per cent of control (MAP4K2 (human)) [%] | kinase still bound, per cent of control (AXL (human)) [%] | kinase still bound, per cent of control (NEK6 (human)) [%] | kinase still bound, per cent of control (TGFBR2 (human)) [%] | kinase still bound, per cent of control (PRKACB (human)) [%] | kinase still bound, per cent of control (STK25 (human)) [%] | kinase still bound, per cent of control (MAPK3 (human)) [%] | kinase still bound, per cent of control (ZAP70 (human)) [%] | further results
Nc1ccc(-c2ccc3ncc4ccc(=O)n(-c5cccc(C(F)(F)F)c5)c4c3c2)cn1 | 99 | 100 | 100 | 59 | 100 | 100 | 100 | 100 | 89 | 100 | 100 | 100 | 68 | 74 | 92 | 84 | 85 | 56 | 100 | 100 | kinase still bound, per cent of control (ALK (human)): 100%; kinase still bound, per cent of control (SIK2 (human)): 73%; kinase still bound, per cent of control (SRPK2 (human)): 100%; kinase still bound, per cent of control (SLK (human)): 100%; kinase still bound, per cent of control (CDK16 (human)): 98%; kinase still bound, per cent of control (MARK1 (human)): 100%; kinase still bound, per cent of control [1]: 13%; kinase still bound, per cent of control (CDK9 (human)): 93%; kinase still bound, per cent of control [2]: 100%; kinase still bound, per cent of control (GSK3A (human)): 100%; kinase still bound, per cent of control (CAMKK1 (human)): 94%; kinase still bound, per cent of control (ROS1 (human)): 82%; kinase still bound, per cent of control (MYO3A (human)): 100%; kinase still bound, per cent of control (MST1R (human)): 90%; kinase still bound, per cent of control (CAMK2D (human)): 85%; kinase still bound, per cent of control (EPHA3 (human)): 86%; kinase still bound, per cent of control (CLK3 (human)): 71%; kinase still bound, per cent of control (CLK1 (human)): 12%; kinase still bound, per cent of control (PRKX (human)): 100%; kinase still bound, per cent of control (CSNK1A1L (human)): 89%
C[C@@H](Oc1cc(-n2cnc3ccc(CN4CCN(C)CC4)cc32)sc1C(N)=O)c1ccccc1C(F)(F)F | 95 | 100 | 100 | 65 | 10 | 53 | 29 | 100 | 58 | 100 | 57 | 42 | 24 | 41 | 95 | 100 | 89 | 83 | 100 | 69 | kinase still bound, per cent of control (ALK (human)): 100%; kinase still bound, per cent of control (SIK2 (human)): 61%; kinase still bound, per cent of control (SRPK2 (human)): 59%; kinase still bound, per cent of control (SLK (human)): 0.25%; kinase still bound, per cent of control (CDK16 (human)): 100%; kinase still bound, per cent of control (MARK1 (human)): 100%; kinase still bound, per cent of control [1]: 92%; kinase still bound, per cent of control (CDK9 (human)): 93%; kinase still bound, per cent of control [2]: 10%; kinase still bound, per cent of control (GSK3A (human)): 100%; kinase still bound, per cent of control (CAMKK1 (human)): 99%; kinase still bound, per cent of control (ROS1 (human)): 84%; kinase still bound, per cent of control (MYO3A (human)): 78%; kinase still bound, per cent of control (MST1R (human)): 100%; kinase still bound, per cent of control (CAMK2D (human)): 7.3%; kinase still bound, per cent of control (EPHA3 (human)): 100%; kinase still bound, per cent of control (CLK3 (human)): 91%; kinase still bound, per cent of control (CLK1 (human)): 36%; kinase still bound, per cent of control (PRKX (human)): 100%; kinase still bound, per cent of control (CSNK1A1L (human)): 84%

— the kinase profiling compilation of Christmann-Franck et al. (2016)
